Assay [1] deals with Calcium/calmodulin-dependent protein kinase type 1 (Homo sapiens) (UniProt Q14012). Particulars: at 10 µM.
Assay [2] deals with T1, Serine/threonine-protein kinase 3 (Homo sapiens) (UniProt Q13188).
T1 sequence (whole entry): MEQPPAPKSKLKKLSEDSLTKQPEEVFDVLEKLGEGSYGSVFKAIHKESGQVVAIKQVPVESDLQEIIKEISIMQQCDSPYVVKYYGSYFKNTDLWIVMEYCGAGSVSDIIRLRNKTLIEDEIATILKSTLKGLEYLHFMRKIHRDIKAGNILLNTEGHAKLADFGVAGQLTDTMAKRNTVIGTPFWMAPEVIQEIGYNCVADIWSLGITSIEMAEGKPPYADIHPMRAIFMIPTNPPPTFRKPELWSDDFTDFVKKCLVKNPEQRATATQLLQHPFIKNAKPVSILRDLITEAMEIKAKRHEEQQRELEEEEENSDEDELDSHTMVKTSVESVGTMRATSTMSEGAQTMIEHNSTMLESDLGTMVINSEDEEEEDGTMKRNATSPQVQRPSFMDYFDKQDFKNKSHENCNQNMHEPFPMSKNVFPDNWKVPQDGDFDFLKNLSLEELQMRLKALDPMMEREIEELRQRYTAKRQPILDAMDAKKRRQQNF
Description: Selectivity interaction (KinomeScan (DiscoverX)) EUB0001049a STK3. Particulars: at 1 µM.

Assay [3] concerns the target T2, Phosphatidylinositol 4,5-bisphosphate 3-kinase catalytic subunit delta isoform (Homo sapiens) (UniProt O00329).
T2 sequence (whole entry): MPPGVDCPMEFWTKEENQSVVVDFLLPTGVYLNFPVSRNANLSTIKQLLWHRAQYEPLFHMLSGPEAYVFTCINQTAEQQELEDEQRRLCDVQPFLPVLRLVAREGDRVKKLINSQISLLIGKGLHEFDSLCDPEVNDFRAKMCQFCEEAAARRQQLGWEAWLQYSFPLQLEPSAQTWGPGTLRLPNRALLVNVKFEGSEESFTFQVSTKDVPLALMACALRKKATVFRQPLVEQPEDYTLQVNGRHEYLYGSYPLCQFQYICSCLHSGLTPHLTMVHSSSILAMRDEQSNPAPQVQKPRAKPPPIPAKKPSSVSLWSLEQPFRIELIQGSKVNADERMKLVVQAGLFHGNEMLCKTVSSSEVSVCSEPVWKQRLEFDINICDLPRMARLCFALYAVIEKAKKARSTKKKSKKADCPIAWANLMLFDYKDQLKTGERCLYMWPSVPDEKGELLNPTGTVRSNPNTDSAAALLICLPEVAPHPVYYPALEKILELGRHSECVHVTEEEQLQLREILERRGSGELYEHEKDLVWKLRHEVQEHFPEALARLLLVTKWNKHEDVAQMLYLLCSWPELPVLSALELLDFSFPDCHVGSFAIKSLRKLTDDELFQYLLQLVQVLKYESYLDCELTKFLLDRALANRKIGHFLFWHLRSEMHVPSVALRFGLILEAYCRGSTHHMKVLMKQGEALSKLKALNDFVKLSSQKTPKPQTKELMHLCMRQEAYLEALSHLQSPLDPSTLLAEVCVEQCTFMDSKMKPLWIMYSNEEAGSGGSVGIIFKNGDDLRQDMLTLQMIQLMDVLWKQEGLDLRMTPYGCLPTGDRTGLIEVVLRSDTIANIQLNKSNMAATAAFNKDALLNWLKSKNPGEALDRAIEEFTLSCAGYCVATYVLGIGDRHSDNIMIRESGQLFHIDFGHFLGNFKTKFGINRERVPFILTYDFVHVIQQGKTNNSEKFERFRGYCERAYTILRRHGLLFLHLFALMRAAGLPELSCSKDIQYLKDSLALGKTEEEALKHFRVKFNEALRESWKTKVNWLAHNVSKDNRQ
The experiment in a line: Selectivity interaction (KinomeScan (DiscoverX)) EUB0000695a PIK3CD. The following applies: at 100 nM.

The target of assay [4] is Mitogen-activated protein kinase kinase kinase 9 (Homo sapiens) (UniProt P80192). The experiment in a line: Selectivity interaction (Kinase panel (Z-LYTE Assay)) EUB0001632a MAP3K9. The following applies: at 10 µM.
Sequence of Mitogen-activated protein kinase kinase kinase 9 (Homo sapiens) (P80192 whole entry, looked up): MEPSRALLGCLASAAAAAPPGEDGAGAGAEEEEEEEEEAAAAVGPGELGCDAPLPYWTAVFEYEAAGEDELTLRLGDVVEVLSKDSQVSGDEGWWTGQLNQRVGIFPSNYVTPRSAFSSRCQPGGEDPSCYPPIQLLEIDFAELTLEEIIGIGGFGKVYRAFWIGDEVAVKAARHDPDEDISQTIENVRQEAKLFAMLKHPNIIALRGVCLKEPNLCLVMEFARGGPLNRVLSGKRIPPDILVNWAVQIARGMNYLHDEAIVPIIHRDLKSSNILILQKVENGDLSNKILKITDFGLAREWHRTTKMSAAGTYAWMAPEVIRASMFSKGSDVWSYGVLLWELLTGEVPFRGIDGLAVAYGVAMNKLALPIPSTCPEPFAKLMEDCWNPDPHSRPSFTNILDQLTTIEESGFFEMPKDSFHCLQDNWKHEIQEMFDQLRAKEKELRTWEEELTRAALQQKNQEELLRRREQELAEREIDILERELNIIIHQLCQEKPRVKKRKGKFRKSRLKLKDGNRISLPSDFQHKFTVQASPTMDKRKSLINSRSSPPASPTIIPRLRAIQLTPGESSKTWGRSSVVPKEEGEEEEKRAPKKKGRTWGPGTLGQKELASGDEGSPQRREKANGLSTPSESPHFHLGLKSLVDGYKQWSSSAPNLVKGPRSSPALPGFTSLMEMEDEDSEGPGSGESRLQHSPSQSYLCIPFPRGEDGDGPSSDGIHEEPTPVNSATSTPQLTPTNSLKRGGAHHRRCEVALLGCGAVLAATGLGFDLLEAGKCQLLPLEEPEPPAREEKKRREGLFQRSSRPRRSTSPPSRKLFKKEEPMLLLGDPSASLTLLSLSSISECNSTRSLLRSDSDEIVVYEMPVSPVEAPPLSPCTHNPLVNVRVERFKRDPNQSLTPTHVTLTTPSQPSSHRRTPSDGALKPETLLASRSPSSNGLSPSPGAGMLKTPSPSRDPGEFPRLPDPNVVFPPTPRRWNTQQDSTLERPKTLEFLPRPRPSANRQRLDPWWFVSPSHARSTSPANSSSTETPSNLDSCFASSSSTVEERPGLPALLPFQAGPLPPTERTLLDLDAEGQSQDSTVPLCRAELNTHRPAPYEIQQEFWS
Assay [5] addresses eIF-2-alpha kinase GCN2 (Homo sapiens) (UniProt Q9P2K8). Description: Selectivity interaction (ActivX KiNativ screen (kinase selectivity in THP-1 cell lysates)) EUB0000639a EIF2AK4. In kind it is subcellular. Particulars: lysate.
Assay [6] has as its target T3, Protein kinase C iota type (Homo sapiens) (UniProt P41743).
T3 sequence (whole entry): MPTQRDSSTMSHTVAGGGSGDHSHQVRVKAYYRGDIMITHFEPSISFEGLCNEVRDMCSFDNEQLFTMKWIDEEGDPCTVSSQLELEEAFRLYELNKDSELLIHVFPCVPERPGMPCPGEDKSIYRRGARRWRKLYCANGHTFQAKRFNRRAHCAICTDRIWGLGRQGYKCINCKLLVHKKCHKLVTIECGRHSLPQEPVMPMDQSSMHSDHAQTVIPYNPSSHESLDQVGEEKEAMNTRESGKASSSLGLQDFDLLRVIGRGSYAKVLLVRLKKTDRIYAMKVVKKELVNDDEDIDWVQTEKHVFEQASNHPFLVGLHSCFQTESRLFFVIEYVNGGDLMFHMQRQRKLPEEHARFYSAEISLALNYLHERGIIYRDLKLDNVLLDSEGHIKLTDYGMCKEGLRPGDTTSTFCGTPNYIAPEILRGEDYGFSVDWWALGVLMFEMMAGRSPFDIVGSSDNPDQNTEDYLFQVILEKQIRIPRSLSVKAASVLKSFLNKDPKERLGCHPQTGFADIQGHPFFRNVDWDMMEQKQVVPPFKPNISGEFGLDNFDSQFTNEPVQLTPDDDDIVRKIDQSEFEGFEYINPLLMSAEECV
The experiment in a line: Selectivity interaction (ActivX KiNativ screen (kinase selectivity in THP-1 cell lysates)) EUB0000639a PRKCI. The following applies: lysate, at 0.2 µM. The format is subcellular.

Assay [7] has as its target T4, Serine/threonine-protein kinase 17A (Homo sapiens) (UniProt Q9UEE5).
T4 sequence (whole entry): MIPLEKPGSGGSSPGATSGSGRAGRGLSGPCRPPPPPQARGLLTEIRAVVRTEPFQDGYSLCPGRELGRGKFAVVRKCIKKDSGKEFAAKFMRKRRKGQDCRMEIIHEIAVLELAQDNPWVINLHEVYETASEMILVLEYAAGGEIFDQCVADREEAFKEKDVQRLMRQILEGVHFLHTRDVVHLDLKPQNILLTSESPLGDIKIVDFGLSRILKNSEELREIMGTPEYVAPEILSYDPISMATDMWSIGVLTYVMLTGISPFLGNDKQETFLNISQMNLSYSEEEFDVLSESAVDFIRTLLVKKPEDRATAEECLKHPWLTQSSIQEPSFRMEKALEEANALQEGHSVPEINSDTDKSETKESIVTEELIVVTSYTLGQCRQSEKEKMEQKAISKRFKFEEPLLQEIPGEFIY
The experiment in a line: Selectivity interaction (KinomeScan (DiscoverX)) EUB0000595a STK17A. Particulars: at 10 µM.

Sequence of eIF-2-alpha kinase GCN2 (Homo sapiens) (Q9P2K8 whole entry): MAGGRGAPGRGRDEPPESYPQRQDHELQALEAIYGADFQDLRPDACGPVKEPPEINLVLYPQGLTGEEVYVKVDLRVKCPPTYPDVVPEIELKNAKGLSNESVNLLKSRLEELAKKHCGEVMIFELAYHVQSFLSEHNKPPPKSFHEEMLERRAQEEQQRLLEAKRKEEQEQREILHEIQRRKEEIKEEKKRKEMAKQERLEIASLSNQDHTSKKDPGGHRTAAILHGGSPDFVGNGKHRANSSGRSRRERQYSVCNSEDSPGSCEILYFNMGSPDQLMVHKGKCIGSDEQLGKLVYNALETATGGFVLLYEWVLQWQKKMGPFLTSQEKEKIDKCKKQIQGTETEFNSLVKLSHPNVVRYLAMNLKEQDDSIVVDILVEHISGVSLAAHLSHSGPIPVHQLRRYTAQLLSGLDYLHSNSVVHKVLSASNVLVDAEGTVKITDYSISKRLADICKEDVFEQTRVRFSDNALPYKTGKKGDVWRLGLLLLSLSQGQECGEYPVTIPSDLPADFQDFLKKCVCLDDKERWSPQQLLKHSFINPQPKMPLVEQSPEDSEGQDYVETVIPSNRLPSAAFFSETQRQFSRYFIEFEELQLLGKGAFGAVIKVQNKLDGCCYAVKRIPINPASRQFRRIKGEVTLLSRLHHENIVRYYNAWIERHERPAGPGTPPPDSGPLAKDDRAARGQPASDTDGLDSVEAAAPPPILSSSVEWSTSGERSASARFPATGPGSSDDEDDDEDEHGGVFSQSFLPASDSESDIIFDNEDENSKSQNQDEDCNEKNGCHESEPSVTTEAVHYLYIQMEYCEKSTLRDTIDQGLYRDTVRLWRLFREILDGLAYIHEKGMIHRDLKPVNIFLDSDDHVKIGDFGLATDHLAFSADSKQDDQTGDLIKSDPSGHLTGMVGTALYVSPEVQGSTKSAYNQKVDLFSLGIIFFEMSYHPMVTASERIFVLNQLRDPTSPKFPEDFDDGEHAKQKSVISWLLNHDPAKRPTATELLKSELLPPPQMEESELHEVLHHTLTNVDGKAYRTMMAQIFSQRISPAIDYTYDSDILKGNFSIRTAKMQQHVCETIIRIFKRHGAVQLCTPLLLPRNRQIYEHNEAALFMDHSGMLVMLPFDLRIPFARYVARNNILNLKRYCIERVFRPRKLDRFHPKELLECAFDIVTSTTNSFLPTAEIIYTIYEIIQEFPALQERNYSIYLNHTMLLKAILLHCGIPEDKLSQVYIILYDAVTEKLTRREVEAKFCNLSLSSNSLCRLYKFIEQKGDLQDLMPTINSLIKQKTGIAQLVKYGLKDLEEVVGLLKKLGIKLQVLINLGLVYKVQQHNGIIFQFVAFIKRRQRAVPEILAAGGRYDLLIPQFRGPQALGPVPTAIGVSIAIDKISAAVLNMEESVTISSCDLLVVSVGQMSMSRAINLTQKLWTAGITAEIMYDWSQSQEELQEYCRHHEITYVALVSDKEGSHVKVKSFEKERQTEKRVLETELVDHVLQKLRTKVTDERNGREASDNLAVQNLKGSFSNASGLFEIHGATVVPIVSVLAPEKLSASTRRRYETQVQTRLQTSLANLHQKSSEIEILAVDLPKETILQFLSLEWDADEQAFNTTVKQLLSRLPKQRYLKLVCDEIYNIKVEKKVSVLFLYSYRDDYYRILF
Sequence of Calcium/calmodulin-dependent protein kinase type 1 (Homo sapiens) (Q14012 whole entry, looked up): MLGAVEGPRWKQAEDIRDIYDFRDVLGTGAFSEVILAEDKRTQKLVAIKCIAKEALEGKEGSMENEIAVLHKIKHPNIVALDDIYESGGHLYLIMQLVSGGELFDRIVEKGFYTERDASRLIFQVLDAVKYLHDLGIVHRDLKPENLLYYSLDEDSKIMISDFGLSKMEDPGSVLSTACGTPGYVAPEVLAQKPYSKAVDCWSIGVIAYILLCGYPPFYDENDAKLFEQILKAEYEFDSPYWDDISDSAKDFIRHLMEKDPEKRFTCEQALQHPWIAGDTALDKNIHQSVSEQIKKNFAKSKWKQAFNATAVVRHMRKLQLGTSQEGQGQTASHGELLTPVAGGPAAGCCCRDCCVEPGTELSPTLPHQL

As for `Cc1cc([C@@H](C)Nc2ccccc2C(=O)O)c2nc(N3CCOCC3)cc(=O)n2c1` [AZD-6482], the % of control in assay [1] amounted to 100%.

Take `COc1cc(Nc2nc(C)cc(-c3cnn4nc(OC)ccc34)n2)cc(C(F)(F)F)c1`: the % of control in assay [2] turned out to be 100%.

In the case of `Cc1cc(F)c(C(=O)Nc2cccc(-c3nncn3C(C)C)n2)cc1-n1cnc(C2CC2)c1`, in assay [3], the % of control is 92%.

Consider `Cn1cc(-n2cnc3c(NCc4nc5cc(Cl)c(Cl)cc5[nH]4)nc(N4CCOCC4)nc32)cn1`, for which, in assay [4], the % of control was -5.34%.

As to `CC[C@@H]1[C@H](F)C(=O)N[C@@H]1COc1nccc2cc(C(N)=O)c(OC)cc12` [ZIMLOVISERTIB], the % of inhibition is -4.6% in assay [5] (at 0.01 µM); -11.3% in assay [5] (at 0.04 µM); -14.4% in assay [5] (at 0.2 µM); 13.9% in assay [5] (at 1 µM); 12.4% in assay [5] (at 5 µM); 0% in assay [6].

For the compound `COCC(=O)NC/C=C/c1ccc2ncnc(Nc3ccc(Oc4ccc(C)nc4)c(C)c3)c2c1` [CP-724714], the % of control in assay [7] was 84%.

The record behind these values is ChEMBL document CHEMBL5465560, “Selectivity Literature for EUbOPEN Chemogenomic Library” (2024).
